Source: US9969701B2, “Salts and co-crystals of lesinurad” (CRYSTAL PHARMATECH, INC., priority 2013, dated 2018)
≈ marks a conversion by molar mass, not a printed value.

Tests used:
[1] = Hygroscopicity assessment by dynamic vapor sorption (DVS); type: physicochemical
Method: Dynamic Vapor Sorption (DVS) was measured via a SMS (Surface Measurement Systems) DVS Intrinsic. The relative humidity at 25° C. was calibrated against deliquescence point of LiCl, Mg(NO3)2 and KCl. Typical Parameters for DVS test are listed below.
Gas and flow rate: N2, 200 mL/min

[2] = Stability assessment under stress conditions (solid form by XRPD after storage); type: physicochemical; conditions: 14 days; for Stability under stress conditions: 25° C./60% RH and 40° C./75% RH; for Final form: XRPD
Method: Analytical Instrument: Panalytical Empyrean. The X-ray powder diffractogram was determined by mounting a sample of the crystalline material on a Si single crystal low-background holder and spreading out the sample into a thin layer with the aid of a microscope slide. The 2θ position was calibrated against Panalytical 640 Si powder standard. The sample irradiated with X-rays generated by a copper long-fine focus tube operated at 45 kV and 40 mA with a wavelength of Kα1=1.540589 angstroms and Kα2=1.544426 angstroms (Kα1/Kα2 intensity ratio is 0.50). The collimated X-ray source was passed through a programmed divergence slit set at 10 mm and the reflected radiation directed through a 5.5 mm anti-scattering slit. The sample was exposed for 16.3 seconds per 0.013° 2-theta increment (continuous scan mode) over the range 3 degrees to 40 degrees 2-theta in theta-theta mode. The running time was 3 minutes and 57 seconds. The instrument was equipped with an RTMS detector (X'Celerator). Control and data capture was accomplished by means of a Dell Optiplex 780 XP operating with data collector software.
The solid samples were analyzed by […].
The solid samples were analyzed by XRPD.

[3] = Kinetic solubility in bio-relevant media (FaSSIF, FeSSIF), HPLC quantification; type: physicochemical; conditions: thermodynamic from solid, RT; for solubility at 1 h: time point 1 h; for solubility at 4 h: time point 4 h; for solubility at 24 h: time point 24 h
Method: 2. Add 3 mL of bio-relevant medium into each vial.
3. Cap the vials and keep all the suspension samples stirring at RT (room temperature) using a rolling incubator at a rate of 25 r/min.
4. Sample at 1 h, 4 h and 24 h respectively. About 0.6 mL aliquot of the suspension is transferred per time from solubility vial into a centrifuge filtration tube (pore size of 0.45 μm).
5. Centrifuge filtration tubes at a rate of 8500 rpm for 3 minutes at RT, collect 0.2 mL of supernatant for HPLC quantification determination and collect the rest of solution for pH measurement, and separate the solid for XRPD characterization.

gout patients = gout patients who did not get benefit from allopurinol and febuxostat; lesinurad alone; cited from earlier work
[4] = FaSSIF (fasted state simulated intestinal fluid), FaSSIF
[5] = FeSSIF (fed state simulated intestinal fluid), FeSSIF

Row | Water uptake under 80% RH ([1]; 25° C., 80% RH) [%] | Water uptake under 95% RH ([1]; 25° C.) [%] | Stability under stress conditions [2] | Final form ([2]; stored under 25° C./60% RH) | Final form ([2]; stored under 40° C./75% RH) | SMILES | also measured
1 | 25.11 | 32.13 | – | – | – | O=C([O-])CSc1nnc(Br)n1-c1ccc(C2CC2)c2ccccc12.[Na+] [sodium salt Form A, reference compound] | –
2 | 0.15 | 0.33 | stable | calcium salt Form A | calcium salt Form A | O=C([O-])CSc1nnc(Br)n1-c1ccc(C2CC2)c2ccccc12.O=C([O-])CSc1nnc(Br)n1-c1ccc(C2CC2)c2ccccc12.[Ca+2] [calcium salt Form A] | Hygroscopicity ([1]; 80% RH, 25° C., European pharmacopoeia criteria): almost not hygroscopic; Deliquescence under high humidity conditions ([1]; high humidity): does not deliquesce
3 | – | – | – | – | – | O=C(O)CSc1nnc(Br)n1-c1ccc(C2CC2)c2ccccc12 [lesinurad freeacid, 2-((5-bromo-4-(4-cyclopropylnaphthalen-1-yl)-4H-1,2,4-triazol-3-yl)thio)acetic acid] | solubility at 1 h [3, 4]: 2890 µg/mL (≈ 7.15 mM); solubility at 4 h [3, 4]: 3580 µg/mL (≈ 8.86 mM); solubility at 24 h [3, 4]: 3000 µg/mL (≈ 7.42 mM); solubility at 1 h [3, 5]: 1510 µg/mL (≈ 3.72 mM); solubility at 4 h [3, 5]: 2140 µg/mL (≈ 5.29 mM); solubility at 24 h [3, 5]: 1930 µg/mL (≈ 4.78 mM); Serum levels of uric acid (gout patients): significantly reduced
4 | – | – | stable | co-crystal | co-crystal | O=C(O)CSc1nnc(Br)n1-c1ccc(C2CC2)c2ccccc12.O=C(O)[C@@H]1CCCN1 | –
